Data published in patent US9469650B2, “Melampomagnolide B derivatives” (BOARD OF TRUSTEES OF THE UNIVERSITY OF ARKANSAS, priority 2013, dated 2016).
Like-named read-outs stand apart in the source and are kept apart here.

Key:
[1] = test system: BT-549; test: panel of 60 human tumor cell lines, growth inhibition (Breast Cancer); settings: Homo sapiens
[2] = test system: UACC-62; test: panel of 60 human tumor cell lines, growth inhibition (Melanoma); settings: Homo sapiens
[3] = test system: SK-MEL-2; test: as above; settings: Homo sapiens
[4] = test system: DU-145; test: panel of 60 human tumor cell lines, growth inhibition (Prostate Cancer); settings: Homo sapiens
[5] = test system: M14; test: panel of 60 human tumor cell lines, growth inhibition (Melanoma); settings: Homo sapiens
[6] = test system: SNB-75; test: panel of 60 human tumor cell lines, growth inhibition (CNS Cancer); settings: Homo sapiens
[7] = test system: MCF7; test: panel of 60 human tumor cell lines, growth inhibition (Breast Cancer); settings: Homo sapiens
[8] = test system: OVCAR-3; test: panel of 60 human tumor cell lines, growth inhibition (Ovarian Cancer)
[9] = test system: 786-0; test: panel of 60 human tumor cell lines, growth inhibition (Renal Cancer); settings: Homo sapiens
[10] = test system: HCT-15; test: panel of 60 human tumor cell lines, growth inhibition (Colon Cancer); settings: Homo sapiens
[11] = test system: HCT-116; test: as above; settings: Homo sapiens
[12] = test system: NCI-H322M; test: panel of 60 human tumor cell lines, growth inhibition (Non-Small Cell Lung Cancer); settings: Homo sapiens
[13] = test system: K-562; test: panel of 60 human tumor cell lines, growth inhibition (Leukemia)
[14] = test system: SK-OV-3; test: panel of 60 human tumor cell lines, growth inhibition (Ovarian Cancer); settings: Homo sapiens
[15] = test system: UO-31; test: panel of 60 human tumor cell lines, growth inhibition (Renal Cancer); settings: Homo sapiens
[16] = test system: NCI-H226; test: panel of 60 human tumor cell lines, growth inhibition (Non-Small Cell Lung Cancer); settings: Homo sapiens
[17] = test system: HL-60(TB)
[18] = test system: RXF 393; test: panel of 60 human tumor cell lines, growth inhibition (Renal Cancer); settings: Homo sapiens

Compound: C=C1C(=O)O[C@H]2[C@H]1CC/C(COC(=O)OCCCN1CCCCC1)=C\CC[C@@]1(C)O[C@@H]21 [JVM 2-26]
- GI50 ([1]; BT-549): 3.12 µM
- CC50 ([1]; BT-549, read-out: LC50): 38.7 µM
- IC (TGI) ([1]; BT-549, read-out: TGI): 15 µM
- GI50 ([2]; UACC-62): 8.05 µM
- CC50 ([2]; UACC-62, read-out: LC50): 47.1 µM
- IC (TGI) ([2]; UACC-62, read-out: TGI): 11 µM
- GI50 ([3]; SK-MEL-2): 11.2 µM
- CC50 ([3]; SK-MEL-2, read-out: LC50): 55.8 µM
- IC (TGI) ([3]; SK-MEL-2, read-out: TGI): 25.1 µM
- GI50 ([4]; DU-145): 3.19 µM
- CC50 ([4]; DU-145, read-out: LC50): 35.3 µM
- IC (TGI) ([4]; DU-145, read-out: TGI): 12.5 µM
- GI50 ([5]; M14): 3.85 µM
- CC50 ([5]; M14, read-out: LC50): 41.1 µM
- IC (TGI) ([5]; M14, read-out: TGI): 15.5 µM
- GI50 ([6]; SNB-75): 2.59 µM
- CC50 ([6]; SNB-75, read-out: LC50): 40.6 µM
- IC (TGI) ([6]; SNB-75, read-out: TGI): 16.5 µM
- GI50 ([7]; MCF7, MCF7): 2.3 µM
- CC50 ([7]; MCF7, read-out: LC50): 50.8 µM
- IC (TGI) ([7]; MCF7, read-out: TGI): 10.7 µM
- GI50 ([8]; Homo sapiens, OVCAR-3): 1.96 µM
- CC50 ([8]; Homo sapiens, OVCAR-3, read-out: LC50): 22 µM
- IC (TGI) ([8]; Homo sapiens, OVCAR-3, read-out: TGI): 5.88 µM
- Percent Growth ([8]; OVCAR-3, Log10 Concentration −4.0): −100%
- Percent Growth ([8]; OVCAR-3, Log10 Concentration −5.0): −24%
- Percent Growth ([8]; OVCAR-3, Log10 Concentration −6.0): 80%
- Percent Growth ([8]; OVCAR-3, Log10 Concentration −7.0): 96%
- Percent Growth ([8]; OVCAR-3, Log10 Concentration −8.0): 98%
- GI50 ([9]; 786-0): 2.48 µM
- CC50 ([9]; 786-0, read-out: LC50): 37.3 µM
- IC (TGI) ([9]; 786-0, read-out: TGI): 11.1 µM
- GI50 ([10]; HCT-15): 2.39 µM
- CC50 ([10]; HCT-15, read-out: LC50): 37 µM
- IC (TGI) ([10]; HCT-15, read-out: TGI): 10.6 µM
- GI50 ([11]; HCT-116, HCT-116): 2.07 µM
- CC50 ([11]; HCT-116, read-out: LC50): 23.9 µM
- IC (TGI) ([11]; HCT-116, read-out: TGI): 6.42 µM
- GI50 [12]: 17.2 µM
- CC50 ([12]; read-out: LC50): > 100 µM
- IC (TGI) ([12]; read-out: TGI): 54.4 µM
- GI50 ([13]; Homo sapiens, K562): 3.27 µM
- CC50 ([13]; Homo sapiens, K562, read-out: LC50): > 100 µM
- TGI ([13]; K-562): 1.52E−5
- Percent Growth ([13]; K-562, Log10 Concentration −4.0): −42%
- Percent Growth ([13]; K-562, Log10 Concentration −5.0): 9%
- Percent Growth ([13]; K-562, Log10 Concentration −6.0): 93%
- Percent Growth ([13]; K-562, Log10 Concentration −7.0): 96. %
- Percent Growth ([13]; K-562, Log10 Concentration −8.0): 100%
- GI50 ([14]; SK-OV-3): 21 µM
- CC50 ([14]; SK-OV-3, read-out: LC50): > 100 µM
- IC (TGI) ([14]; SK-OV-3, read-out: TGI): 53.7 µM
- GI50 ([15]; UO-31): 2.36 µM
- CC50 ([15]; UO-31, read-out: LC50): 46.3 µM
- IC (TGI) ([15]; UO-31, read-out: TGI): 12.5 µM
- GI50 ([16]; NCI-H226): 4.43 µM
- CC50 ([16]; NCI-H226, read-out: LC50): 79.8 µM
- Percent Growth ([17]; Log10 Concentration −4.0): −50%
- Percent Growth ([17]; Log10 Concentration −5.0): −10%
- Percent Growth ([17]; Log10 Concentration −6.0): 73%
- Percent Growth ([17]; Log10 Concentration −7.0): 64%
- Percent Growth ([17]; Log10 Concentration −8.0): 93%
- GI50 ([18]; RXF 393, RXF 393): 2.35 µM
- CC50 ([18]; RXF 393, read-out: LC50): 34 µM
- IC (TGI) ([18]; RXF 393, read-out: TGI): 8.65 µM
